Active and inactive are the calls of the source. On the calls: in the data inactive means no Kd found up to 30 µM.
Key:
[1] = target: Serine/threonine-protein kinase/endoribonuclease IRE2 (Homo sapiens, UniProt Q76MJ5)
[2] = target: Elongation factor Tu, mitochondrial (Homo sapiens, UniProt P49411)

Sequence of Serine/threonine-protein kinase/endoribonuclease IRE2 (Q76MJ5 whole entry): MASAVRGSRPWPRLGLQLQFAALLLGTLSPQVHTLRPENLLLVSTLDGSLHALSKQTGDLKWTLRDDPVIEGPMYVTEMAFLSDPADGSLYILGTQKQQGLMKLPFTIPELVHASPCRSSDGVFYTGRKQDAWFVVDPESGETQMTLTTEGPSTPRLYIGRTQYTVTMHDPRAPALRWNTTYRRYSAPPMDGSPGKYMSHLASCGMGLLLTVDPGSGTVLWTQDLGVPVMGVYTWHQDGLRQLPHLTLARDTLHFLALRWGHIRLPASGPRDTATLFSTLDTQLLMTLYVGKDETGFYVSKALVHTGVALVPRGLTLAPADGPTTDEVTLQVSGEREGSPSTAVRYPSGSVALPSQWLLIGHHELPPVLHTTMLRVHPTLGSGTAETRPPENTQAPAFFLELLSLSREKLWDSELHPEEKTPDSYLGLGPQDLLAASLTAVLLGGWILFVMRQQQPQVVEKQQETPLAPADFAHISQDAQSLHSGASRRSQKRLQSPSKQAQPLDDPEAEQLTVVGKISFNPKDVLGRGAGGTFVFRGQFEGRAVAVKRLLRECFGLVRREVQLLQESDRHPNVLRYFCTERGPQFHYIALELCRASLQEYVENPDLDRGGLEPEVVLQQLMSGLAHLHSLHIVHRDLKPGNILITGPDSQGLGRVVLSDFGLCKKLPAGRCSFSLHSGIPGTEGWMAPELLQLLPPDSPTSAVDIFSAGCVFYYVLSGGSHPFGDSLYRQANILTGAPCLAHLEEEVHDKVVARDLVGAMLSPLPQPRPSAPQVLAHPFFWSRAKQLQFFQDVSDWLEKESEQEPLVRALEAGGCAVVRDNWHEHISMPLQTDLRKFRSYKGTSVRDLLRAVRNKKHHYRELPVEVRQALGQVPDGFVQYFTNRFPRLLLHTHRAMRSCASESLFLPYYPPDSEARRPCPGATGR

| Kd [1] | Kd [2] | Compound |
| --- | --- | --- |
| > 30 µM (inactive) | > 30 µM (inactive) | COc1cc2c(N3CCN(C(=O)Nc4ccc(OC(C)C)cc4)CC3)ncnc2cc1OCCCN1CCCCC1 [TANDUTINIB] |
| > 30 µM (inactive) | > 30 µM (inactive) | CC1(C)CNc2cc(NC(=O)c3cccnc3NCc3ccncc3)ccc21 [MOTESANIB] |
| > 30 µM (inactive) | > 30 µM (inactive) | Cn1cnc2c(F)c(Nc3ccc(Br)cc3Cl)c(C(=O)NOCCO)cc21 [SELUMETINIB] |
|  | > 30 µM (inactive) | C[C@@]1(C(=O)Nc2ccc(F)nc2)CCCN1c1nc(Nc2cc(C3CC3)n[nH]2)c2cccn2n1 [BMS-754807] |
| > 30 µM (inactive) | > 30 µM (inactive) | CN(C)C/C=C/C(=O)Nc1cc2c(Nc3ccc(F)c(Cl)c3)ncnc2cc1O[C@H]1CCOC1 [AFATINIB] |

— ChEMBL document CHEMBL3991601, “The target landscape of clinical kinase drugs” (Science, 2017)
